{"source": "patent US11110209B2", "about": "“Intraluminal therapy system for gastrointestinal infections” (MACKAY MEDICAL FOUNDATION THE PRESBYTERIAN CHURCH IN TAIWAN …, priority 2017, dated 2021)", "assay": "Clinical study: gastric juice pH after irrigation", "format": "in vivo", "conditions": "patients; acetylcysteine (12 mg/ml) solution irrigation of gastric mucosa after two tablets of sublingual Takepron", "experimental": "Ten patients having H. pylori infection without prior eradication therapy were enrolled. Before the intraluminal therapy, two tablets of proton pump inhibitor (Takepron) were sublingually administered to the patient. Using the system of the invention, the gastric mucosa was irrigated with acetylcysteine (12 mg/ml) solution to remove the acid and mucous on the gastric mucosa. The pH levels before and after irrigation were measured. The acidity of the gastric juice could be well controlled at around pH 5.0 after irrigation. The total dosage of acetylcysteine was less than 140 mg/kg. Then amoxicillin, metronidazole, clarithromycin, sucrate gel and distilled water were mixed to form a complex. […] The viscosities of the complexes were shown below.", "data": [{"smiles": "CC(=O)N[C@@H](CS)C(=O)O", "note": "[acetylcysteine]", "values": [{"measurement": "pH of gastric juice after irrigation", "result": "~5.0", "unit": "pH"}]}]}
